For one data set, the target named is T1, LOXL2 (Homo sapiens, UniProt Q9Y4K0).
T1 sequence (Q9Y4K0 26-774): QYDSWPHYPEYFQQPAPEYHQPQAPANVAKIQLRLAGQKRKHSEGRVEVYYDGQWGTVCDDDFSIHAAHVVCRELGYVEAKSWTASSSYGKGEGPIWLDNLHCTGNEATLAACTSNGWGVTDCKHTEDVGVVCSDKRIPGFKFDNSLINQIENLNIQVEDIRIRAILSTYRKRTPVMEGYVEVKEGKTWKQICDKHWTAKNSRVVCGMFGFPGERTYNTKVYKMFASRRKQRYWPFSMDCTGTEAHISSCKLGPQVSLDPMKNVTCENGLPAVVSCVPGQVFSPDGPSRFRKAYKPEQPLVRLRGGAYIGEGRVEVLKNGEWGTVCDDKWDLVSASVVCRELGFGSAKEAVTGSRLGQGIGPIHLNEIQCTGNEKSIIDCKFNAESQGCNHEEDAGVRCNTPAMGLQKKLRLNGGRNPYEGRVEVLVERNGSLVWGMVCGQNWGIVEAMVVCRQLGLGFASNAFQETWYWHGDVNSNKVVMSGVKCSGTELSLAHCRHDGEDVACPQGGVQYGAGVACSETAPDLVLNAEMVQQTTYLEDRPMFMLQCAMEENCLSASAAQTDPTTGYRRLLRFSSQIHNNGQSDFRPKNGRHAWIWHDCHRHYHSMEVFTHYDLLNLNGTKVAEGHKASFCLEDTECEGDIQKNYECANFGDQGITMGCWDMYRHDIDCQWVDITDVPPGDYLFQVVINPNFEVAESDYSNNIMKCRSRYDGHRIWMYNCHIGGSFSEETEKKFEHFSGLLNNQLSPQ
Kind of data set: Lysyl oxidase activity assay with recombinant LOXL2 protein. The class given is biochemical. Also noted: purchased Abcam, USA. As to conditions: for inhibition of recombinant LOXL2: 10 μM compound. The method, then: For in vitro lysyl oxidase activity (for recombinant proteins), Lysyl Oxidase Activity kit (Biovision, USA) was used according to manufacturer's instructions. Briefly, 1 μg of LOX (Novus, USA), 0.2 μg of LOXL1 (Abcam, USA) and 0.1 μg of LOXL2 (Abcam, USA) were incubated with the reagent mix in the presence of inhibitors or vehicle. Lysyl oxidase activity of the wells was measured in multimode reader (every 30 sec, total 2.5 hours) in […] mode.

The test system of the next data set is Caki-1 cells. Kind of data set: ECM crosslinking in kidney cancer cells. The class given is cell-based, human. As to conditions: 6232 at 10 uM, BAPN at 10 mM. The method, then: Immunofluorescence staining of cells was done in μ-Slide 8-well glass bottom chambers (Ibidi, Germany). Cells were fixed with 4% paraformaldehyde for 20 min, permeabilized with 0.5% Triton X-100 for 10 min and blocked in 5% BSA-PBS. Samples were incubated with primary (Collagen I, Fibronectin, F-actin, a-SMA) and secondary Alexa Fluor 647 or 488-labeled antibodies for 1.5 hours at room temperature. Cells were also counterstained with DAPI for 5 min. Images were acquired using ZEN 2012 SP5 (Black) LSM 700 (Carl Zeiss, DE).

The test system of the next data set is MCF12A. Kind of data set: Viability assay in normal cells. As to conditions: normal breast cell line. The format is cell-based, human. The text has this:
(§1) FIG. 32. 6232 derivatives, 6403 and 6415, show no cytotoxicity in normal cells. Viability assay in normal breast cell line, MCF12A, human foreskin fibroblast cell line, HFF and human endothelial cell line, HUVEC treated with 6403 or 6415.

Another data set has as its system HUVEC. Kind of data set: Viability assay in normal cells. Particulars: human endothelial cell line. The class given is cell-based.
From the text: as §1

The next data set deals with HFF. Kind of data set: Viability assay in normal cells. The class given is cell-based. Particulars: human foreskin fibroblast cell line.
From the text: as §1

The next data set in a line: In vivo toxicity testing. Also noted: species or system BALB/c mice. The protocol: FIG. 41. In vivo testing of 6403 with respect to PK and toxicity. A. Summary of PK parameters of 6403 given orally with 50 mg/kg, n=3. B. H&E staining of organs of BALB/c mice treated daily with 50 or 200 mg/kg of 6403 for one week. C. Body weight of mice treated with vehicle or 25, 50, 75, 100 or 200 mg/kg of 6403 for 5 days. D. Cell-free enzymatic MAO-A and MAO-B assay.

The nature of the next data set: PK analysis. The class given is in vivo, BALB/c mice. As to conditions: mice, orally 50 mg/kg, n=3. The method, then: PK profiles of Lead LOX inhibitor, 6403 was tested in BALB/c mice. Three mice per group were dosed by oral gavage at 50 mg/kg. Serum samples were collected at time points; 0.25, 0.5, 2, 7 and 24 hours. 6403 was diluted with serum from healthy mice as standard and serum levels of LOX inhibitors were quantified by LC-MS/MS methods, compared to the standard readings and followed by calculation of PK parameters, including Cmax, AUC, T1/2 values, clearance (Cl) and oral bioavailability (F %). Cmax represents the maximum concentration of drug that observed in the serum. AUC is a measure of the total exposure of the drug in the serum. T1/2, half-life, is the time required to eliminate half of the drug. Cl is defined as the volume of blood from which all drug is removed per minute.

The test system of a further data set is ACHN ccRCC xenografts. Kind of data set: Kidney cancer xenograft model. The format is in vivo, BALB/c nude mice. As to conditions: 50 mg/kg, PO, daily. The method, then:
FIG. 42. Efficacy of 6403 as a single agent in ccRC xenografts. Tumor volume (A), % body weight change (B) and blood count (C) of 6403-treated (50 mg/kg, PO, daily) ACHN xenografts. μg=microgram. LOX expression in ACHN cells is provided by an inset next to the graph in A.
For kidney xenografts, 4×10^6 ACHN cells were mixed with 1:1 DMEM and matrigel and injected into the flank of the BALB/c nude mice. Mouse weight and tumor volumes were measured every second day using calipers. When tumor sizes reach 100 mm^3, mice were randomly distributed into vehicle and 6403 treatment group. Mice were treated daily by oral gavage with vehicle v (50% PEG400, 1% Tween 80 in acetate buffer pH=4) or 50 mg/kg of 6403.

As for `Cc1nc(N)sc1-c1csc(Nc2ccc([N+](=O)[O-])cc2)n1` [compound 6232, 4-methyl-5-[2-(4-nitroanilino)thiazol-4-yl]thiazol-2-amine], the “inhibition of recombinant LOXL2” value at LOXL2 was “moderately inhibit”. For the same compound, in the data set with Caki-1 cells, the ECM crosslinking result is “decrease in ECM crosslinking”.
With `Cc1nc(N)sc1-c1csc(N(C)c2ccc(O)cc2)n1` [compound 6415, 4-[[4-(2-amino-4-methyl-thiazol-5-yl)thiazol-2-yl]-methyl-amino]phenol], the “cell viability (cytotoxicity in normal cells)” value (from here on “cell viability”) with MCF12A, in the data set on HUVEC and in the data set on HFF was “no significant change in cell viability” in each case. The “inhibition of recombinant LOXL2” value at LOXL2 was “inhibits both LOX and LOXL2 recombinant proteins”. In addition, the “inhibition of recombinant LOXL2 activity” value at LOXL2 (5 and 10 uM) is “inhibited the activity of LOX and LOXL2 recombinant proteins”.
For `CC(=O)Nc1ccc(Nc2nc(-c3sc(N)nc3C)cs2)cc1` [compound 6403, N-[4-[[4-(2-amino-4-methyl-thiazol-5-yl)thiazol-2-yl]amino]phenyl]acetamide], the blood cell counts entry in the data set “In vivo toxicity testing” (200 mg/kg vs vehicle) was “No significant effect”. The “organ damage (H&E staining of organs)” value in the data set “In vivo toxicity testing” (50 or 200 mg/kg daily for one week) was “did not lead to any observable organ damage”. In addition, the body weight result in the data set “In vivo toxicity testing” (different doses administered daily (25-200 mg/kg, 5 days)) is “No significant effect”. Moreover, in the data set on MCF12A, the “cell viability” value is recorded as “no significant change in cell viability”. For the same compound, the “cell viability” value with HUVEC was “no significant change in cell viability”. Besides, the “cell viability” value in the data set on HFF is “no significant change in cell viability”. In the data set “PK analysis”, the “Area Under the Curve (AUC)” value is “high”, the “clearance (Cl)” value was “low”, the “half-life (T½)” value is given as “long” and the “maximum concentration (Cmax)” value is “high”. In addition, the “volume of distribution (Vd)” value in the data set “PK analysis” is given as “high”. Further, in the data set on ACHN ccRCC xenografts, the body weight result is recorded as “without impacting” and the “counts of major blood cells” value was “without impacting”. Besides, the tumor growth entry in the data set on ACHN ccRCC xenografts (single agent) is listed as “successfully reduced the tumor growth”.

The values above are taken from patent US12642791B2, “Inhibitors of lysyl oxidases” (UNIVERSITY OF SOUTH CAROLINA, priority 2021, dated 2026).
